Results: BindingDB's records for doi:10.7270/Q2HM56V2 (The Scripps Research Institute Molecular Screening Center, 2008)

Target: T1, Signal transducer and activator of transcription 1-alpha/beta (Homo sapiens, UniProt P42224)
T1 sequence (P42224 whole entry): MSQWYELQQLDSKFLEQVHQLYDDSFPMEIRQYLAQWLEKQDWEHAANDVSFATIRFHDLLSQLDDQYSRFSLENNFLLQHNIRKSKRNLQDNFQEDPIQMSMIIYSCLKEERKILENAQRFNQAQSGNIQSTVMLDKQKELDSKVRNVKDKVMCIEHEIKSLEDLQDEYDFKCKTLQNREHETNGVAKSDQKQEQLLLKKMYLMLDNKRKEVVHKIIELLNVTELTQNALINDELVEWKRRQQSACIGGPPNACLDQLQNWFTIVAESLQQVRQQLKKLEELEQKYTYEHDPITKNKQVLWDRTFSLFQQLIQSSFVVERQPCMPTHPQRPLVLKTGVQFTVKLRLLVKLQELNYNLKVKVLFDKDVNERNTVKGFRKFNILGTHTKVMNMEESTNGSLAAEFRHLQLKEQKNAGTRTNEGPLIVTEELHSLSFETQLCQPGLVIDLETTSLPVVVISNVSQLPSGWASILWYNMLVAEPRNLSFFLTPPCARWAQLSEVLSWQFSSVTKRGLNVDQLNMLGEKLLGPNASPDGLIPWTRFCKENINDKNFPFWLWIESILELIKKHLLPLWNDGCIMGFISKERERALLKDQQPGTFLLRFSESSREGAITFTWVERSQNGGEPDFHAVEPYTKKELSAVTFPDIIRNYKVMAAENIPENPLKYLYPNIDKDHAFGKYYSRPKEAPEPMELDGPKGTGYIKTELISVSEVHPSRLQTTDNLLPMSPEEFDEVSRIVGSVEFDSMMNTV
Experiment: PubChem AID 1406

With `Cc1[nH]n(-c2ccccc2)c(=O)c1C=C1C(=O)NC(=O)NC1=O` the EC50 was over 55.7 µM.
